{"source": "patent US6294568A", "about": "“5-arylpyrrole derivatives” (priority 1997, dated 2001)", "key": {"carrageenan footedema": {"system": "carrageenan footedema", "assay": "Carrageenan Footedema Suppression Test", "type": "in vivo, SD rats", "details": "oral; paw volume three hours after carrageenan administration"}, "adjuvant arthritis": {"system": "adjuvant arthritis", "assay": "Rat Adjuvant Arthritis Test", "type": "in vivo, SD rats", "details": "3 mg/kg, oral", "description": "SD rats were injected subcutaneously with […] liquid paraffin/rat of H-37RA strain in the plantar area of the right hind paw. Only liquid paraffin (0.05 ml) was administered to control groups in the same manner. 21 days after the administration, rats showing the evidence of arthritis were selected and divided into groups having equal mean left and right hind paw volumes, and also having equal arthritis scores. From the date of the grouping, the test samples were administered orally to the rats once daily for 7 days (only the solvent was administered to the negative and positive control groups). The degree of the arthritis was quantitatively evaluated by measuring the volumes of the left and right hind paws by using a volume meter (manufactured by Muromachi Kikai) and by scoring the degree of arthritis by macroscopic observation as illustrated in Table 2. According to the scoring criteria in Table 2, 15 is a perfect score.\nThe dosage of each of the test samples was 3 mg/kg."}, "Human COX-1": {"target": "T1, Human COX-1 (Homo sapiens, UniProt P23219)", "T1 construct": "endogenous in cells; host or cells: whole blood of a healthy human donor (own knowledge: TXB2 of clotting blood comes from platelet COX-1)", "T1 sequence (P23219 24-599)": "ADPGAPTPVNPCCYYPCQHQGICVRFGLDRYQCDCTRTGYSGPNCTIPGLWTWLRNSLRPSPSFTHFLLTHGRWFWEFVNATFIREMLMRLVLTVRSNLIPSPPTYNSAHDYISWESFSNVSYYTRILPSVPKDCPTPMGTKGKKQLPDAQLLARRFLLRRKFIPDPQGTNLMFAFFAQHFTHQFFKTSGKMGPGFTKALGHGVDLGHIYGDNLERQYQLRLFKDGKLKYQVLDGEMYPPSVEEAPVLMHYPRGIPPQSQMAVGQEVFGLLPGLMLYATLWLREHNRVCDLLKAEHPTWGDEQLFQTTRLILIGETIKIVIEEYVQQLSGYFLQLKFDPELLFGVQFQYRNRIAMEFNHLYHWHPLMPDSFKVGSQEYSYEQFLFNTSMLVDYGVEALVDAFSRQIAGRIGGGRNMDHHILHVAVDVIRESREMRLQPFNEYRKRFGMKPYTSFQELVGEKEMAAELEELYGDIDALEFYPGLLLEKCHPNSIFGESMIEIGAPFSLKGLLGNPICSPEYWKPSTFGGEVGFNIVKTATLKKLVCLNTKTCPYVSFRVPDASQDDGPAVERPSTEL", "assay": "Human COX-1 Inhibitory Activity Test (TXB2 in blood)", "type": "cell-based", "details": "IC50 from Hill Plot", "description": "COX-1 and COX-2 activities were measured according to the method of Patrignani et al. (J. Pharm. Exp. Ther. Vol. 271, 1705 (1994)).\n(1) COX-1 activity was measured in the following procedure. […] The serum obtained by 10 minutes of centrifugation at 2000 rpm at 4° C. was stored at -40° C. until the measurement of the amount of thromboxane B2 (TXB2). The test samples, which had been dissolved in ethanol and diluted to the specified concentrations, were previously dispensed into the glass test tubes, and the solvent was evaporated to dryness by Centrifugal Vaporizer (CVE-200D, manufactured by Tokyo Rika Mfg. Co., Ltd.) so that the test samples were added to the plasma.\n(3) The measurement for the TXB2 content was conducted in the following procedure. In a part of a 96 well plate coated with anti-rabbit IgG antibody, 2 wells were allotted respectively to blank well, Non-specific Binding (NSB) well, Maximum Binding (B0) well, standard wells at 7 concentrations of TXB2 (1000 pg/ml) in doubling dilution ranging from 1000-15.6 pg/ml. The rest of the wells were used for the measurement of the samples. EIA buffer was added to the NSB wells (100 μl ) and B0 wells (50 μl), respectively. 50 μl of each of the standard dilution was added in an order from thinner to thicker concentrations. Each of the samples was added to the rest of the wells in an amount of 50 μl. Then, 50 μl of TXB2 tracer was added to each of the wells except for the blank wells. Further, 50 μl of TXB2 antibody was added to each of the wells except for the NSB wells and blank wells, then the well plate was covered with a plastic film and the reaction continued for 18 hours at room temperature. When the reaction was terminated, the wells were washed 5 times with a wash buffer. 200 μl of Elman's reagent was added to each of the wells and then the well plate was covered with a plastic film and developed for 60 minutes in a dark place. The absorbance at 405 nm was measured by an Immuno Reader (NJ-2000, manufactured by Nippon Intermed Co., Ltd.). From the measurement result, %B/B0 was calculated and, applying it to the approximation formula of Hill Plot, the concentration of the samples was determined to be 2,000 times concentration. […]"}, "Brewer's Yeast Fever": {"system": "Brewer's Yeast Fever", "assay": "Antipyretic Action Test With Respect To Brewer's Yeast Fever", "type": "in vivo, rats", "description": "The antipyretic action was measured as described in the following. A sensor was inserted into the rectum of each rats and the body temperature of one hour after the insertion was recorded as the basal body temperature. The rats were injected subcutaneously with 2 ml/body of 20% brewer's yeast at the region of back and, 18 hours after the injection, the intrafebrile body temperatures were measured. Rats who had shown not less than 0.75° C. of body temperature elevation were selected to whom the test samples was administered orally. The body temperatures of the selected rats were measured every one hour for the following 5 hours. The dosage of each of the test samples was 10 mg/kg."}, "Sarcoma 180 solid tumor": {"system": "Sarcoma 180 solid tumor", "assay": "Antitumor Effect with respect to Sarcoma 180 Solid Tumor Mouse", "type": "in vivo, ICR mice", "details": "10 mg/kg in abdominal cavity, 10 days; day 11", "description": "The antitumor effect test was conducted according to the method of the U. S. National Cancer Institute (NCI) (Cancer Chemotherapy Reports part 3, Vol. 3, 1 (1978)). Cell suspension of Sarcoma 180 cells (mouse sarcoma virus) which was employed as the tumor cell strain for transplant was prepared by diluting the cells in the Hank's solution at 2×10^7 cells/ml concentration ([…]), and ICR mice (10 mice per group) aged 5 weeks were injected subcutaneously with 0.2 ml of the cell suspension at the region of the back. Setting the day of the tumor transplantation as day 0. the mice were administered in the abdominal cavity with the compounds of the invention (Preparation Examples 1 and 37), 5-fluorouracyl, and the solution as the control for 10 days consecutively from day 1. On day 11, the mice were sacrificed, and portions of the solid tumor were removed so that weights thereof were measured. The dosage of each of the test samples was 10 mg/kg."}}, "note": "pIC50: −log10 of the molar value.", "data": [{"smiles": "Cc1cc(-c2ccc(F)cc2)c(-c2ccc(S(C)(=O)=O)cc2)[nH]1", "note": "[Preparation Example 1, 4-(4-fluorophenyl)-2-methyl-5-(4-methylsulfonylphenyl)-1H-pyrrole]", "values": [{"measurement": "Edematization Suppression rate", "setting": "carrageenan footedema", "result": 35.5, "unit": "%"}, {"measurement": "Right Hind Paw Volume day 21", "setting": "adjuvant arthritis; day 21 (starting date of administration), once daily", "result": 3.86, "unit": "mL"}, {"measurement": "Right Hind Paw Volume day 27", "setting": "adjuvant arthritis; day 27, once daily for 7 days", "result": 2.96, "unit": "mL"}, {"measurement": "pIC50", "setting": "Human COX-1", "result": 3.19}, {"measurement": "Body temperature 1 Hour After", "setting": "Brewer's Yeast Fever; 10 mg/kg oral, 1 hour after", "result": 37.98, "unit": "°C"}, {"measurement": "Body temperature 3 Hours After", "setting": "Brewer's Yeast Fever; 10 mg/kg oral, 3 hours after", "result": 37.10, "unit": "°C"}, {"measurement": "Body temperature 5 Hours After", "setting": "Brewer's Yeast Fever; 10 mg/kg oral, 5 hours after", "result": 37.13, "unit": "°C"}, {"measurement": "Intrafebrile Body Temperature", "setting": "Brewer's Yeast Fever; 18 hours after yeast injection, before administration, 10 mg/kg group", "result": 39.08, "unit": "°C"}, {"measurement": "Basal Body Temperature", "setting": "Brewer's Yeast Fever; one hour after sensor insertion, before yeast, 10 mg/kg group", "result": 37.54, "unit": "°C"}, {"measurement": "Tumor Weight", "setting": "Sarcoma 180 solid tumor", "result": 0.726, "unit": "g"}]}]}
